Paper PMC8766756, “Insights on Cancer Cell Inhibition, Subcellular Activities, and Kinase Profile of Phenylacetamides Pending 1H-Imidazol-5-One Variants” (Frontiers in Pharmacology, 2022)
Where “and” joins values, the source holds several entries; their conditions need not be identical. Equal entries are not always repeated.

What was measured:
Assay in all cases: PamChip tyrosine kinase microarray
Format in all cases: biochemical
Details in all cases: 0.1 µM, HL60 lysate
ALK (Q9UM73) = biological target: T1, ALK (Q9UM73) (Homo sapiens, UniProt Q9UM73)
T1 construct: purchased PamGene (PamChip PTK array, Upstream Kinase Analysis)
Procedure, shortened: (§1)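 HL60 (AML) cell lysate was spiked with compound at 0.001, 0.01, 0.1, 1, 10 and 50 µM, or 2% v/v DMSO as control, then profiled in technical replicates on a tyrosine kinase peptide array of 196 phosphosites. Kinase activity was inferred from peptide-set changes using an upstream kinase tool.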

Abl (P00519) = biological target: T2, Abl (P00519) (Homo sapiens, UniProt P00519)
T2 construct: purchased PamGene (PamChip PTK array, Upstream Kinase Analysis)
Procedure, shortened: as §1

BTK (Q06187) = biological target: T3, BTK (Q06187) (Homo sapiens, UniProt Q06187)
T3 construct: purchased PamGene (PamChip PTK array, Upstream Kinase Analysis)
Procedure, shortened: as §1

Tyk2 (P29597) = biological target: T4, Tyk2 (P29597) (Homo sapiens, UniProt P29597)
T4 construct: purchased PamGene (PamChip PTK array, Upstream Kinase Analysis)
Procedure, shortened: as §1

TRKC (Q16288) = biological target: T5, TRKC (Q16288) (Homo sapiens, UniProt Q16288)
T5 construct: purchased PamGene (PamChip PTK array, Upstream Kinase Analysis)
Procedure, shortened: as §1

Lck (P06239) = biological target: T6, Lck (P06239) (Homo sapiens, UniProt P06239)
T6 construct: purchased PamGene (PamChip PTK array, Upstream Kinase Analysis)
Procedure, shortened: as §1

TEC (P42680) = biological target: T7, TEC (P42680) (Homo sapiens, UniProt P42680)
T7 construct: purchased PamGene (PamChip PTK array, Upstream Kinase Analysis)
T7 sequence (P42680 1-631): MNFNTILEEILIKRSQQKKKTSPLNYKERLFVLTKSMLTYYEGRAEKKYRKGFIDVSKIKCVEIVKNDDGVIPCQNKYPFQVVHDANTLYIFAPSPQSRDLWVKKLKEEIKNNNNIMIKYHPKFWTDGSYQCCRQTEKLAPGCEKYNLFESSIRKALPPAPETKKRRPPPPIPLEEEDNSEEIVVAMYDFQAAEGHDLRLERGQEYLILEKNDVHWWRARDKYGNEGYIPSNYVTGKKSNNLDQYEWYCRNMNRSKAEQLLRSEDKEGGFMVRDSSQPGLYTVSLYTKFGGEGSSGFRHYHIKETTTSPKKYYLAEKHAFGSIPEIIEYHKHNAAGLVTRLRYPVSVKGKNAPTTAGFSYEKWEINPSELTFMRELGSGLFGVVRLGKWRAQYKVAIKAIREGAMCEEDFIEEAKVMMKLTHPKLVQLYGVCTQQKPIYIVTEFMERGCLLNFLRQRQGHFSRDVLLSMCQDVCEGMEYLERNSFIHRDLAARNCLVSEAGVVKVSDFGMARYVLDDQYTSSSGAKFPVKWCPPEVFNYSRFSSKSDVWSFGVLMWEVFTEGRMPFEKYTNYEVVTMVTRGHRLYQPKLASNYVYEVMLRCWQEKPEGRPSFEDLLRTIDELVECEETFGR
Procedure, shortened: as §1

IRR (P14616) = biological target: T8, IRR (P14616) (Homo sapiens, UniProt P14616)
T8 construct: purchased PamGene (PamChip PTK array, Upstream Kinase Analysis)
Procedure, shortened: as §1

T2 sequence (P00519 whole entry): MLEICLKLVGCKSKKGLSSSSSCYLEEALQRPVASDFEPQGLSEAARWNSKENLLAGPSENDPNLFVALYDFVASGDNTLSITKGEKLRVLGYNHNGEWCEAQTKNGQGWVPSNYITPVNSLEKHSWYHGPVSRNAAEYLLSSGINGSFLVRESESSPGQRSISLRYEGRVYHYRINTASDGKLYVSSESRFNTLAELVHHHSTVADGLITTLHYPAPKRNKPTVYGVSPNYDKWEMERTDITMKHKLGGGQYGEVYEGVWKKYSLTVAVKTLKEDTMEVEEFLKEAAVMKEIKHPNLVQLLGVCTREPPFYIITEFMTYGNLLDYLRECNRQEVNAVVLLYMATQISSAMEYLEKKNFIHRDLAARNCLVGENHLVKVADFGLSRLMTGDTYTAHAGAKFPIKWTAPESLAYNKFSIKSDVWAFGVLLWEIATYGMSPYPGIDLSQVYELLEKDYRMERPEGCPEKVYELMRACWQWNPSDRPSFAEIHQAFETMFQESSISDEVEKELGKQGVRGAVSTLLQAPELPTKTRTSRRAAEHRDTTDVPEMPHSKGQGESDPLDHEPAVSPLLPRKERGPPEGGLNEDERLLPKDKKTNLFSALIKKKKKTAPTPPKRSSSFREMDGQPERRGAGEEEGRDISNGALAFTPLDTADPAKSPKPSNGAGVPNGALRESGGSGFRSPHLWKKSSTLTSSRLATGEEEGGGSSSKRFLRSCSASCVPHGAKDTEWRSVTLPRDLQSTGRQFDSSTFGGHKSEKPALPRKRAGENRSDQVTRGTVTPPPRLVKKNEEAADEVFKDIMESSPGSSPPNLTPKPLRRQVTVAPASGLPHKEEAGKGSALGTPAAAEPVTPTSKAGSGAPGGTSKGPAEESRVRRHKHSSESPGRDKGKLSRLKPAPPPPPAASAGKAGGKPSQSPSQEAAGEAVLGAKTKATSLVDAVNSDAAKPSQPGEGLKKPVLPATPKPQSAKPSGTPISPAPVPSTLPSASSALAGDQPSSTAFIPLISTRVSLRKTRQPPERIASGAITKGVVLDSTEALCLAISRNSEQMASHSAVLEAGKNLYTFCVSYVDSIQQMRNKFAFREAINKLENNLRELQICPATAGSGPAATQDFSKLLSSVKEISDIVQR
T6 sequence (P06239 whole entry): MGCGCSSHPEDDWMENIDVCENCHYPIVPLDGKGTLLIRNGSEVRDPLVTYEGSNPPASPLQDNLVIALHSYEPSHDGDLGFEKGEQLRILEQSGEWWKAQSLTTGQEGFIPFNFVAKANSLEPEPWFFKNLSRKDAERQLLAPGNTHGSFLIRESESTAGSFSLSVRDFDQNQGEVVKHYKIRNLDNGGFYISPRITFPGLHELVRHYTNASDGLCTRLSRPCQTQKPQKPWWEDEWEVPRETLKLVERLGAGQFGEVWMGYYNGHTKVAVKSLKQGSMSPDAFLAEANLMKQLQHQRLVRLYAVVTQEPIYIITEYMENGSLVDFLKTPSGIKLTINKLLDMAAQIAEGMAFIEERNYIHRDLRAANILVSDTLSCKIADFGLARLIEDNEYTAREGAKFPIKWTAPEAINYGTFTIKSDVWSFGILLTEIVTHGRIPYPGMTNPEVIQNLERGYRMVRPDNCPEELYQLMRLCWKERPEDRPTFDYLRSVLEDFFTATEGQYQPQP
T5 sequence (Q16288 32-839): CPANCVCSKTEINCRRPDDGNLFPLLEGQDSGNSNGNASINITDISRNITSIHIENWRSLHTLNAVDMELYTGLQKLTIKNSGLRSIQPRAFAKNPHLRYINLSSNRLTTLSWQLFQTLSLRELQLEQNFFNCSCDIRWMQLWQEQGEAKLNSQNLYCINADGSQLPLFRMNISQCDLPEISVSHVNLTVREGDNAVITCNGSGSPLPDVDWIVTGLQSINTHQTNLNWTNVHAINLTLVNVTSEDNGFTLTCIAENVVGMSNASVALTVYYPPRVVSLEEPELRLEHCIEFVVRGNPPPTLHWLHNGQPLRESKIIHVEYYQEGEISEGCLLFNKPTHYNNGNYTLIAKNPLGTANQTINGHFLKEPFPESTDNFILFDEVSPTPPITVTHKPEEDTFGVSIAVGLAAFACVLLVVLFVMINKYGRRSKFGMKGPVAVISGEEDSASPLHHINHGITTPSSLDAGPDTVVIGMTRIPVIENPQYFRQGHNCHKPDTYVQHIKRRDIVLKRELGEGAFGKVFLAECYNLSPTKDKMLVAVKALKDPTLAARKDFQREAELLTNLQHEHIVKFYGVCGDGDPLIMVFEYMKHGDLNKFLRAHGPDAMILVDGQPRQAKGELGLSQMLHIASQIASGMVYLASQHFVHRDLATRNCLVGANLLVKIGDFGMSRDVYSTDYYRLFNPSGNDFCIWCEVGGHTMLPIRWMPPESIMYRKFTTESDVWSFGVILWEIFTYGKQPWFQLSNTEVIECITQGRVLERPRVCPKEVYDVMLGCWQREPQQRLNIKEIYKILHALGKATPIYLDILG
T4 sequence (P29597 whole entry): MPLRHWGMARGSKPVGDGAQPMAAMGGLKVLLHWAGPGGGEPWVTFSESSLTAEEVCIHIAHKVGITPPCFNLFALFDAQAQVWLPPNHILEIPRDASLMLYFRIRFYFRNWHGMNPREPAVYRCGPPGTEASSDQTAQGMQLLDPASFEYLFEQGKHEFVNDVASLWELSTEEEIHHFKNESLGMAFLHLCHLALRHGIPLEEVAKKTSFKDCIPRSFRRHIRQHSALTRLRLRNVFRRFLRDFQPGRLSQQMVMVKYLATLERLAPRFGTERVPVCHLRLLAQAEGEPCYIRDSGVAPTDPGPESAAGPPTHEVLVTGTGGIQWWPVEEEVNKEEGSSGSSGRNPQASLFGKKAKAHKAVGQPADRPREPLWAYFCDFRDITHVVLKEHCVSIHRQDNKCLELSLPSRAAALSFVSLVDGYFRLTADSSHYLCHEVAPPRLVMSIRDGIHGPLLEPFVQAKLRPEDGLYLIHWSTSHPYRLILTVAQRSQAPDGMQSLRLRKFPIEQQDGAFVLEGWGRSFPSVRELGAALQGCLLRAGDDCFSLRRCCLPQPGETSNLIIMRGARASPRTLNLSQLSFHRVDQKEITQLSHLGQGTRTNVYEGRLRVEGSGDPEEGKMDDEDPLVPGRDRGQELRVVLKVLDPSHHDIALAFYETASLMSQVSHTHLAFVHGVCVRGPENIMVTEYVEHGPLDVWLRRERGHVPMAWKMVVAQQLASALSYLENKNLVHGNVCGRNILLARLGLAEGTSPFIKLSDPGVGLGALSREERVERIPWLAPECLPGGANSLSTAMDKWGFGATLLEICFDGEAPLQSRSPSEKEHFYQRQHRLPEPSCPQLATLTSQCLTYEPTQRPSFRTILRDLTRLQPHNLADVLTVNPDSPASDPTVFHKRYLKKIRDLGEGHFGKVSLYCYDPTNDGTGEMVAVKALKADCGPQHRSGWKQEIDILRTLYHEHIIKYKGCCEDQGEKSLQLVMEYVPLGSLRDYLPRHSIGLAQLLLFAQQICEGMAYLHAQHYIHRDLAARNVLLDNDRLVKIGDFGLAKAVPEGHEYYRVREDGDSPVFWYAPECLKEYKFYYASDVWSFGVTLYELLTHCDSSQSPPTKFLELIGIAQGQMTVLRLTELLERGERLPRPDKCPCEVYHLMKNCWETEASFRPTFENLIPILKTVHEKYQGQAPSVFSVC
T8 sequence (P14616 27-1297): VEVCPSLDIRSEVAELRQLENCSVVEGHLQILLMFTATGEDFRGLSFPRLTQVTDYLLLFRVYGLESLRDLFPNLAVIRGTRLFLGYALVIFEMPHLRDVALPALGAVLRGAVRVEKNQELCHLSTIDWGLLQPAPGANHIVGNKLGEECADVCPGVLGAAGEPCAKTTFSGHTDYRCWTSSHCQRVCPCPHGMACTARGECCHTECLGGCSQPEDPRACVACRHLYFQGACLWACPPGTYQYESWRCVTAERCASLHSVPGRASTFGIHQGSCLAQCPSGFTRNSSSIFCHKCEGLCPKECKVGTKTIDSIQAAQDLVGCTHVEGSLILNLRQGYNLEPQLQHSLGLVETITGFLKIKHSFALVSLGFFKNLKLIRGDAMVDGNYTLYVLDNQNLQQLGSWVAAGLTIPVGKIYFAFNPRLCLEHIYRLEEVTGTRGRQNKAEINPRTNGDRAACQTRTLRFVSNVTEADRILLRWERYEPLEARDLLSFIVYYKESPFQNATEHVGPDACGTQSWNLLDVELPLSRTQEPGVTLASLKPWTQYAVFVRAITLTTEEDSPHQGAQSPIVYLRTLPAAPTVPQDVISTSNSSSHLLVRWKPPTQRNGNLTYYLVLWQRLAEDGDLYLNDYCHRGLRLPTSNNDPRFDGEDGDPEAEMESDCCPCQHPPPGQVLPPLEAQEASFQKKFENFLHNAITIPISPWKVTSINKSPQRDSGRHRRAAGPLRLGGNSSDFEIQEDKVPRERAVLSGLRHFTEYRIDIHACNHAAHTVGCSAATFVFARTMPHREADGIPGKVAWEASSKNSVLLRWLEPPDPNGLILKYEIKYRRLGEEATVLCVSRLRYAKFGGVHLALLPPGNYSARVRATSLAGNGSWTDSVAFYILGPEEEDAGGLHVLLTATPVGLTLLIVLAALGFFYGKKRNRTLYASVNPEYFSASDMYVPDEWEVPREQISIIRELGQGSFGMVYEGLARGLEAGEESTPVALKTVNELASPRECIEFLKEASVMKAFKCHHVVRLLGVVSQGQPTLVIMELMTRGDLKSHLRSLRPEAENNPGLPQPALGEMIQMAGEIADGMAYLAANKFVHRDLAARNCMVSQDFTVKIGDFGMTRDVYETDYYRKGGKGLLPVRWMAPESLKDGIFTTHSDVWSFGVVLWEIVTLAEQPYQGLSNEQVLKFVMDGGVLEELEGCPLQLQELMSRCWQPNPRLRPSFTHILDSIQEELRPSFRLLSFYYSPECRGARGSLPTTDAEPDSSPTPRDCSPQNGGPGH

## COc1ccc(/C=C2\N=C(C)N(c3ccc(CC(=O)NCc4ccccc4)cc3)C2=O)cc1 [Compound 4c, (Z)-N-Benzyl-2-(4-(4-(4-methoxybenzylidene)-2-methyl-5-oxo-4,5-dihydro-1H-imidazol-1-yl)phenyl)acetamide]
ALK (Q9UM73)
  Mean Final score (Kinase score): 2.186
  Mean Kinase Statistic: -1.125
  Mean Significance Score: 2.048
  Mean Specificity Score: 0.1497
Abl (P00519)
  Mean Final score (Kinase score): 2.191
  Mean Kinase Statistic: -1.128
  Mean Significance Score: 1.966
  Mean Specificity Score: 0.1837
BTK (Q06187)
  Mean Significance Score: 1.957
  Mean Specificity Score: 0.668
BTK (Q06187); listed as KIM-161
  Mean Final score (Kinase score): 2.76 and 2.762
Tyk2 (P29597)
  Mean Final score (Kinase score): 2.4437
  Mean Kinase Statistic: -1.248
  Mean Significance Score: 2.048
  Mean Specificity Score: 0.3814
TRKC (Q16288)
  Mean Final score (Kinase score): 2.207
  Mean Kinase Statistic: -1.079
  Mean Significance Score: 2.048
  Mean Specificity Score: 0.1464
Lck (P06239)
  Mean Significance Score: 2.048
  Mean Specificity Score: 0.6669
Lck (P06239); listed as KIM-161
  Mean Final score (Kinase score): 2.76 and 2.758
TEC (P42680)
  Mean Final score (Kinase score): 2.197
  Mean Kinase Statistic: -1.125
  Mean Significance Score: 2.048
  Mean Specificity Score: 0.171
IRR (P14616)
  Mean Final score (Kinase score): 2.412
  Mean Kinase Statistic: -1.1771
  Mean Significance Score: 2.053
  Mean Specificity Score: 0.3184
